Measured values as given in patent US20240417405A1, “Substituted Spiro Derivatives” (Janssen Pharmaceutica NV, priority 2021, published 2024).
Blank lines part the entries; values can stand above or below the compound they belong to.

Assays:
[1] = target: T1, menin/MLL (terbium chelate-labeled menin, FITC-MBM1 peptide) (Homo sapiens, UniProt O00255, T541A); assay: Menin/MLL homogenous time-resolved fluorescence (HTRF) assay; assay type: binding; conditions: 30 min incubation
T1 construct: Menin (a.a 1-610-6xhis tag)
T1 sequence (O00255 with tags, fused parts or gaps T541A): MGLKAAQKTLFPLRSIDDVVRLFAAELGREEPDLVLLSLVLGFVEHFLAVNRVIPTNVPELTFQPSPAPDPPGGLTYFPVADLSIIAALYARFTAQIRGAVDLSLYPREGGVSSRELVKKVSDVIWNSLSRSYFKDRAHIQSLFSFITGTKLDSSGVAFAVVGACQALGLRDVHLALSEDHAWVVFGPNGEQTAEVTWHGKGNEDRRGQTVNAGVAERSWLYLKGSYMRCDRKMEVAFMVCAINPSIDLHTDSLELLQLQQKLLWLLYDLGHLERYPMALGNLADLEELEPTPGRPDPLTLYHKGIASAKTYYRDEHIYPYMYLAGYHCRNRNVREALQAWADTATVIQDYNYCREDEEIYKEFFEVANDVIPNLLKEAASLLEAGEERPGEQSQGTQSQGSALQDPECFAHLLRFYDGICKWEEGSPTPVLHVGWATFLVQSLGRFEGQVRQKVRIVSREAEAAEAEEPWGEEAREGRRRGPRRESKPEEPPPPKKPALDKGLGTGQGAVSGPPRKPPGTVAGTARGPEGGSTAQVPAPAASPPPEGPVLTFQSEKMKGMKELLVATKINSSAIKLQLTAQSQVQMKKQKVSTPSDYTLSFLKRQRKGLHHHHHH
Procedure, shortened: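 Read-out: TR-FRET ratio (FITC 520 nm / terbium 490 nm, ex. 337 nm) after 15 min with 75 nM FITC-MBM1 peptide. Test compound first sat 30 min with 200 pM Tb-menin 1-610-His, 0.5% DMSO, pH 7.5 Tris buffer. IC50 by Hill fit; values under 0.1 nM reported as 0.1 nM.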

[2] = test system: MOLM14 cells; assay: Proliferation assay, spheroid-like growth, MOLM14 (MLL-AF9 rearranged); assay type: cell-based, human; conditions: Homo sapiens, MOLM-14, 192 h, 8 days, confluence as measure of spheroid size, read-out: spheroid assay_OneTime MOLM14 IC50
Procedure, shortened: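 MOLM14 (MLL-AF9) or KO-52 (MLL wildtype) cells were grown in ultra-low attachment round-bottom wells with compound (0.3% DMSO) for 8 days at 37 °C. Spheroid confluence was imaged live on day 8, normalized to DMSO and a high-dose reference/staurosporin control, and absolute IC50 fitted with variable slope.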

Structure (SMILES): CC(C)[C@H]([C@H]1C[C@@H](Nc2ncnc3[nH]ncc23)C1)N1CC2(CCN(c3ncnnc3Oc3ccc(F)cc3-c3cncnc3C3CC3)C2)C1 (single isomer, unassigned) [Compound 413]
IC50 [1]: 0.08 nM
IC50 [2]: 26 nM

Structure (SMILES): CC(=O)Nc1cc(N[C@H]2C[C@@H](C(C(C)C)N3CC4(CCN(c5ncnnc5Oc5ccc(F)cc5-c5cncnc5C5CC5)C4)C3)C2)cnn1 (single isomer, unassigned) [Compound 414]
IC50 [1]: 0.1 nM
IC50 [2]: 21 nM

Structure (SMILES): CNC(=O)c1cnc(N[C@H]2C[C@@H]([C@@H](C(C)C)N3CC4(CCN(c5ncnnc5Oc5ccc(F)cc5-c5cnc(C)nc5C5CC5)C4)C3)C2)o1 (single isomer, unassigned) [Compound 416]
IC50 [1]: 0.17 nM
IC50 [2]: 8.9 nM

Structure (SMILES): CNC(=O)c1cnc(N[C@H]2C[C@@H]([C@@H](C(C)C)N3CC4(CCN(c5ncnnc5Oc5ccc(F)cc5-c5cnc(C)nc5C5CC5)C4)C3)C2)s1 (single isomer, unassigned) [Compound 417]
IC50 [1]: 0.05 nM
IC50 [2]: 1.8 nM

Structure (SMILES): CC(C)[C@H]([C@H]1C[C@@H](Nc2ccnc3[nH]c(=O)ccc23)C1)N1CC2(CCN(c3ncnnc3Oc3ccc(F)cc3-c3cncnc3C3CC3)C2)C1 (single isomer, unassigned) [Compound 420]
IC50 [1]: ~0.39 nM
IC50 [2]: 290 nM

Structure (SMILES): CC(C)[C@H]([C@H]1C[C@@H](Nc2ncnc3[nH]ncc23)C1)N1CC2(CCN(c3ncnnc3Oc3ccc(F)cc3-c3cncnc3C3CC3)C2)C1 (single isomer, unassigned) [Compound 422]
IC50 [1]: ~0.27 nM
IC50 [2]: 88 nM

Structure (SMILES): Cc1cc(-c2cnnc(N[C@H]3C[C@@H]([C@@H](C(C)C)N4CC5(CCN(c6ncnnc6Oc6ccc(F)cc6-c6cncnc6C6CC6)C5)C4)C3)c2)[nH]n1 (single isomer, unassigned) [Compound 423]
IC50 [1]: 0.18 nM
IC50 [2]: 9 nM

Structure (SMILES): CC(C)[C@H]([C@H]1C[C@@H](Nc2cnnc(-c3ccn[nH]3)c2)C1)N1CC2(CCN(c3ncnnc3Oc3ccc(F)cc3-c3cncnc3C3CC3)C2)C1 (single isomer, unassigned) [Compound 424]
IC50 [1]: 0.17 nM
IC50 [2]: 4 nM

Structure (SMILES): COC(=O)Nc1cc(N[C@H]2C[C@@H]([C@@H](C(C)C)N3CC4(CCN(c5ncnnc5Oc5ccc(F)cc5-c5cncnc5C5CC5)C4)C3)C2)ccn1 (single isomer, unassigned) [Compound 427]
IC50 [1]: ~0.11 nM
IC50 [2]: < 1.8 nM

Structure (SMILES): CC(=O)Nc1nccc(N[C@H]2C[C@@H]([C@@H](C(C)C)N3CC4(CCN(c5ncnnc5Oc5ccc(F)cc5-c5cncnc5C5CC5)C4)C3)C2)c1F (single isomer, unassigned) [Compound 429]
IC50 [1]: 0.17 nM
IC50 [2]: 3.3 nM

Structure (SMILES): Cc1nnc(-c2cc(N[C@H]3C[C@@H]([C@@H](C(C)C)N4CC5(CCN(c6ncnnc6Oc6ccc(F)cc6-c6cncnc6C6CC6)C5)C4)C3)ccn2)[nH]1 (single isomer, unassigned) [Compound 430]
IC50 [1]: 0.11 nM
IC50 [2]: 3.4 nM

Structure (SMILES): CC(C)[C@H]([C@H]1C[C@@H](Nc2cnc3nn[nH]c3c2)C1)N1CC2(CCN(c3ncnnc3Oc3ccc(F)cc3-c3cncnc3C3CC3)C2)C1 (single isomer, unassigned) [Compound 431]
IC50 [1]: 0.54 nM
IC50 [2]: 79 nM

Structure (SMILES): CNC(=O)c1cc(N[C@H]2C[C@@H]([C@@H](C(C)C)N3CC4(CCN(c5ncnnc5Oc5ccc(F)cc5-c5cncnc5C5CC5)C4)C3)C2)cnn1 (single isomer, unassigned) [Compound 432]
IC50 [1]: 0.17 nM
IC50 [2]: 22 nM

Structure (SMILES): CNC(=O)c1nnc(N[C@H]2C[C@@H]([C@@H](C(C)C)N3CC4(CCN(c5ncnnc5Oc5ccc(F)cc5-c5cncnc5C5CC5)C4)C3)C2)o1 (single isomer, unassigned) [Compound 439]
IC50 [1]: 0.39 nM
IC50 [2]: 25 nM

Structure (SMILES): C[C@@H]([C@H]1C[C@@H](N)C1)N1CC2(CCN(c3ncnnc3Oc3ccc(F)cc3-c3cncnc3C3CC3)C2)C1 (single isomer, unassigned) [Compound 441]
IC50 [1]: 0.92 nM
IC50 [2]: 680 nM

Structure (SMILES): CNC(=O)c1nnc(N[C@H]2C[C@@H]([C@@H](C(C)C)N3CC4(CCN(c5ncnnc5Oc5ccc(F)cc5-c5cncnc5C5CC5)C4)C3)C2)s1 (single isomer, unassigned) [Compound 442]
IC50 [1]: 0.21 nM
IC50 [2]: 4 nM

Structure (SMILES): CNC(=O)c1sc(N[C@H]2C[C@@H]([C@@H](C(C)C)N3CC4(CCN(c5ncnnc5Oc5ccc(F)cc5-c5cncnc5C5CC5)C4)C3)C2)nc1C (single isomer, unassigned) [Compound 443]
IC50 [1]: 0.08 nM
IC50 [2]: 4 nM

Structure (SMILES): Cc1nnc(-c2cnc(N[C@H]3C[C@@H]([C@@H](C(C)C)N4CC5(CCN(c6ncnnc6Oc6ccc(F)cc6-c6cncnc6C6CC6)C5)C4)C3)s2)o1 (single isomer, unassigned) [Compound 445]
IC50 [1]: 0.19 nM
IC50 [2]: 6 nM

Structure (SMILES): CC(C)[C@H]([C@H]1C[C@@H](Nc2ncc(C(N)=O)s2)C1)N1CC2(CCN(c3ncnnc3Oc3ccc(F)cc3-c3cncnc3C3CC3)C2)C1 (single isomer, unassigned) [Compound 446]
IC50 [1]: ~0.1 nM
IC50 [2]: 7 nM

Structure (SMILES): CNC(=O)c1ncc(N[C@H]2C[C@@H]([C@@H](C(C)C)N3CC4(CCN(c5ncnnc5Oc5ccc(F)cc5-c5cncnc5C5CC5)C4)C3)C2)s1 (single isomer, unassigned) [Compound 449]
IC50 [1]: 0.09 nM
IC50 [2]: 8.4 nM

Structure (SMILES): CNC(=O)c1cc(N[C@H]2C[C@@H]([C@@H](C(C)C)N3CC4(CCN(c5ncnnc5Oc5ccc(F)cc5-c5cncnc5C5CC5)C4)C3)C2)ccn1 (single isomer, unassigned) [Compound 451]
IC50 [1]: 0.15 nM
IC50 [2]: 11 nM

Continued, values first:

IC50 [1]: 0.07 nM
IC50 [2]: 9 nM
Structure (SMILES): CC(=O)Nc1cc(N[C@H]2C[C@@H]([C@@H](C(C)C)N3CC4(CCN(c5ncnnc5Oc5ccc(F)cc5-c5cncnc5C5CC5)C4)C3)C2)ncn1 (single isomer, unassigned) [Compound 418]

IC50 [1]: 0.14 nM
IC50 [2]: 5 nM
Structure (SMILES): COc1cc(N[C@H]2C[C@@H]([C@@H](C(C)C)N3CC4(CCN(c5ncnnc5Oc5ccc(F)cc5-c5cncnc5C5CC5)C4)C3)C2)cnn1 (single isomer, unassigned) [Compound 419]

IC50 [1]: 0.13 nM
IC50 [2]: < 1.8 nM
Structure (SMILES): CNC(=O)Nc1cc(N[C@H]2C[C@@H](C(C(C)C)N3CC4(CCN(c5ncnnc5Oc5ccc(F)cc5-c5cncnc5C5CC5)C4)C3)C2)ccn1 (single isomer, unassigned) [Compound 421]

IC50 [1]: 0.03 nM
IC50 [2]: 6 nM
Structure (SMILES): CC(C)C([C@H]1C[C@@H](Nc2cccc(CN(C)C)n2)C1)N1CC2(CCN(c3ncnnc3Oc3ccc(F)cc3-c3cncnc3C3CC3)C2)C1 (single isomer, unassigned) [Compound 425]

IC50 [1]: 0.09 nM
IC50 [2]: < 1.8 nM
Structure (SMILES): Cc1cn2ccc(N[C@H]3C[C@@H](C(C(C)C)N4CC5(CCN(c6ncnnc6Oc6ccc(F)cc6-c6cncnc6C6CC6)C5)C4)C3)cc2n1 (single isomer, unassigned) [Compound 426]

IC50 [1]: 0.09 nM
IC50 [2]: 16 nM
Structure (SMILES): CC(C)C([C@H]1C[C@@H](Nc2cccc(CN3CCOCC3)n2)C1)N1CC2(CCN(c3ncnnc3Oc3ccc(F)cc3-c3cncnc3C3CC3)C2)C1 (single isomer, unassigned) [Compound 428]

IC50 [1]: 0.15 nM
IC50 [2]: 2 nM
Structure (SMILES): CC(C)[C@H]([C@H]1C[C@@H](Nc2cc3nccn3cn2)C1)N1CC2(CCN(c3ncnnc3Oc3ccc(F)cc3-c3cncnc3C3CC3)C2)C1 (single isomer, unassigned) [Compound 433]

IC50 [1]: 0.16 nM
IC50 [2]: 4 nM
Structure (SMILES): CNC(=O)c1coc(N[C@H]2C[C@@H](C(C(C)C)N3CC4(CCN(c5ncnnc5Oc5ccc(F)cc5-c5cncnc5C5CC5)C4)C3)C2)n1 (single isomer, unassigned) [Compound 438]

IC50 [1]: 0.15 nM
IC50 [2]: 4 nM
Structure (SMILES): CC(C)[C@H]([C@H]1C[C@@H](Nc2nnc(N)s2)C1)N1CC2(CCN(c3ncnnc3Oc3ccc(F)cc3-c3cncnc3C3CC3)C2)C1 (single isomer, unassigned) [Compound 447]

IC50 [1]: 0.18 nM
IC50 [2]: 4.6 nM
Structure (SMILES): CC(C)[C@H]([C@H]1C[C@@H](Nc2n[nH]c3ncccc23)C1)N1CC2(CCN(c3ncnnc3Oc3ccc(F)cc3-c3cncnc3C3CC3)C2)C1 (single isomer, unassigned) [Compound 448]

IC50 [1]: 0.08 nM
IC50 [2]: 7 nM
Structure (SMILES): CNC(=O)c1cccc(N[C@H]2C[C@@H](C(C(C)C)N3CC4(CCN(c5ncnnc5Oc5ccc(F)cc5-c5cncnc5C5CC5)C4)C3)C2)n1 (single isomer, unassigned) [Compound 450]
